We go through 13 compounds from patent US8309577B2, “Quinuclidine compounds as α-7 nicotinic acetylcholine receptor ligands” (Bristol-Myers Squibb Company, priority 2008, dated 2012).

The target of data set [1] is T1, α-7 nicotinic acetylcholine receptor channel expressed in HEK 293 cells (Rattus norvegicus, UniProt Q05941).
T1 construct: expressed in transfected cells
Briefly: Ca2+-sensitive fluorescence-based FLIPR assay, α7 nicotinic ACh receptor channel function (agonist). The settings on record: HEK 293 cells, agonist Ca2+ flux. It counts as cell-based. An outline of the steps: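 Potency and efficacy derived from kinetic FLIPR Ca²⁺-flux fluorescence, recorded 3 min after compound addition in Hanks buffer following a 10 s baseline.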
On the technique in general: Calcium flux is commonly read through the fluorescence of an indicator in the cells.

In the next data set the test system is mucosal mast cells. The settings on record: Kageyama-Yahara et al. 2008; cited from earlier work.
Setting [2] is: FLIPR α7 activity rating (EC50, nM), Table 1.
[3] abbreviates: FLIPR α7 activity rating (EC50, nM), Table Ib.

T1 sequence (Q05941 23-502): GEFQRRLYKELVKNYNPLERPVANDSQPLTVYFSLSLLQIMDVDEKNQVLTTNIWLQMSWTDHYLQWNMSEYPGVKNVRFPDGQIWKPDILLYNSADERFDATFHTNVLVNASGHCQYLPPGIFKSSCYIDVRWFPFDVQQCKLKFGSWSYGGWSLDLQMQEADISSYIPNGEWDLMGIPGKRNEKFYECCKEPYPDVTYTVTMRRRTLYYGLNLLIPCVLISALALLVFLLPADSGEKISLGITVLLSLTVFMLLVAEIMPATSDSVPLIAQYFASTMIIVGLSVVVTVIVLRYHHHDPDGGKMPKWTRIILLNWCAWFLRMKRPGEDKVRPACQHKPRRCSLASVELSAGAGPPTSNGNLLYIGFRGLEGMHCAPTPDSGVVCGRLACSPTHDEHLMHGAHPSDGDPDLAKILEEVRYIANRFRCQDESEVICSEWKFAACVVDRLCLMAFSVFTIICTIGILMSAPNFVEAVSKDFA

Usually melting point stands for the temperature, or range, at which the solid turns liquid. By EC50 is commonly meant the concentration needed to bring the measured effect to its halfway point. The low end stands for higher potency in that assay, the high end for lower potency in that assay. `c1ccc(-c2cnc(NC3=NCC4(CN5CCC4CC5)O3)s2)cc1` (stereo not shown) [Example 4, N-(5-Phenylthiazol-2-yl)-4H-1′-azaspiro[oxazole-5,3′-bicyclo[2.2.2]octan]-2-amine] came in with a melting point of 187 to 189 °C. In data set [1] (setting [2]), the EC50 was under 100 nM.

Take `c1ccc2[nH]c(NC3=NCC4(CN5CCC4CC5)O3)nc2c1` (stereo not shown) [Example 8, N-(1H-benzo[d]imidazol-2-yl)-4H-1′-azaspiro[oxazole-5,3′-bicyclo[2.2.2]octan]-2-amine]: the melting point is 255 °C (dec.). Further, the EC50 in data set [1] (setting [2]) was in the range of 100 to 1000 nM.

`FC(F)Oc1ccc2nc(NC3=NC[C@@]4(CN5CCC4CC5)O3)sc2c1` [Example 22, (R)—N-(6-(Difluoromethoxy)benzo[d]thiazol-2-yl)-4H-1′-azaspiro[oxazole-5,3′-bicyclo[2.2.2]octan]-2-amine]: the melting point was in the range of 223 to 225 °C. The same compound registered an EC50 in data set [1] (setting [2]) of 100 to 1000 nM.

For `FC(F)Oc1cc(NC2=NC[C@@]3(CN4CCC3CC4)O2)ncn1` [Example 144], the melting point was in the range of 185 to 190 °C. The same compound came in with an EC50 in data set [1] (setting [2]) of under 100 nM.

Consider `c1ccc2nc(NC3=NC[C@@]4(CN5CCC4CC5)O3)cnc2c1` [Example 220], for which the melting point was 212 to 215 °C. The same compound displayed an EC50 in data set [1] (setting [2]) of under 100 nM.

Take `FC(F)COc1cc(NC2=NC[C@@]3(CN4CCC3CC4)O2)ncn1` [Example 233, (R)—N-(6-(2,2-Difluoroethoxy)pyrimidin-4-yl)-4H-1′-azaspiro[oxazole-5,3′-bicyclo[2.2.2]octan]-2-amine]: the melting point was in the range of 83 to 88 °C. Also, the EC50 in data set [1] (setting [2]) was under 100 nM.

For `COc1cccc(-c2cc(NC3=NC[C@@]4(CN5CCC4CC5)O3)ncn2)c1` [Example 238, (R)—N-(6-(3-Methoxyphenyl)pyrimidin-4-yl)-4H-1′-azaspiro[oxazole-5,3′-bicyclo[2.2.2]octan]-2-amine], the melting point is 80 to 85 °C. Further, the 50% effective concentration (EC50) in data set [1] (FLIPR α7 (EC50, nM), Table 1) worked out at 16 nM. The EC50 in data set [1] (setting [2]) was under 100 nM.

`CSc1cnc(NC2=NC[C@@]3(CN4CCC3CC4)O2)cn1` [Example 250, (R)—N-(5-(Methylthio)pyrazin-2-yl)-4H-1′-azaspiro[oxazole-5,3′-bicyclo[2.2.2]octan]-2-amine] yielded a melting point of 155 to 160 °C. This compound came in with an EC50 in data set [1] (setting [2]) of under 100 nM.

Turning to `c1cn(-c2cc(NC3=NC[C@@]4(CN5CCC4CC5)O3)ncn2)cn1` [Example 347, (R)—N-(6-(1H-imidazol-1-yl)pyrimidin-4-yl)-4H-1′-azaspiro[oxazole-5,3′-bicyclo[2.2.2]octan]-2-amine], the EC50 in data set [1] (setting [3]) was under 100 nM.

The compound `Cc1cn(-c2cc(NC3=NC[C@@]4(CN5CCC4CC5)O3)ncn2)cn1` [Example 348, (R)—N-(6-(4-Methyl-1H-imidazol-1-yl)pyrimidin-4-yl)-4H-1′-azaspiro[oxazole-5,3′-bicyclo[2.2.2]octan]-2-amine] gave an EC50 in data set [1] (setting [3]) of under 100 nM.

`Clc1cn(-c2cc(NC3=NC[C@@]4(CN5CCC4CC5)O3)ncn2)cn1` [Example 349, (R)—N-(6-(4-Chloro-1H-imidazol-1-yl)pyrimidin-4-yl)-4H-1′-azaspiro[oxazole-5,3′-bicyclo[2.2.2]octan]-2-amine] gave an EC50 in data set [1] (setting [3]) of under 100 nM.

Regarding `c1nc(NC2=NC[C@@]3(CN4CCC3CC4)O2)cc(-n2cncn2)n1` [Example 351, (R)—N-(6-(1H-1,2,4-triazol-1-yl)pyrimidin-4-yl)-4H-1′-azaspiro[oxazole-5,3′-bicyclo[2.2.2]octan]-2-amine], the EC50 in data set [1] (setting [3]) was under 100 nM.

Turning to `COc1ccc(/C=C2\CCCN=C2c2cccnc2)c(OC)c1` [GTS-21], the “antigen-induced degranulation of mucosal mast cells” value in the data set on mucosal mast cells is on record as “inhibits”.
